Experiment [1] deals with human aortic smooth muscle cells (hAoSMCs). In words: Calcification of cultivated human aortic smooth muscle cells in calcifying medium (Ca2+ content). Type of experiment: cell-based. Particulars: for effect on calcium content / calcification of hAoSMCs: peptide fragment 100 nmol L^−1, 7 days. Here is the method: Cell culture and calcification induction in human aortic smooth muscle cells: Human aortic smooth muscle cells (hAoSMCs) (Promocell, Heidelberg, Germany) were cultivated in smooth muscle cell medium (Promocell, Heidelberg, Germany). The hAoSMCs were seeded in 48 well plates (5×10^3 cells/well) at 80% confluence. Dulbecco's modified Eagle's medium (DMEM) containing 25 mmol L^−1 glucose supplemented with 2.5% fetal calf serum and 2.8 mmol L^−1 phosphate were used to induce calcification (calcifying medium, CM). The calcifying medium was supplemented with CBF (max. concentration 100 pmol L^−1) or CBF fragments (100 nmol L^−1). As reference medium, DMEM containing 25 mmol L^−1 glucose supplemented with 2.5% fetal calf serum and 0.9 mmol L^−1 phosphate were used (non-calcifying medium, NCM). The hAoSMCs were incubated for 7 days while the incubation medium was replaced after 48 h.
Measurement of calcium content: For determination of calcium content, cells or aortic rings were washed 3 times with PBS without calcium. Aortic rings were dried and weighed. Dried aortic rings and cells were decalcified with 0.1 M HCl for 24 h, and the calcium content in the supernatant was determined by the o-cresolphthalein complexone method (Clinical Chemistry Assay Kit/Calcium, County Antrim, UK) according to the manufacturer's protocol. Cell content was extracted in 0.1 M NaOH 0.1% sodium dodecyl sulfate (SDS), and protein content was measured by the bicinchoninic acid (BCA) protein assay method (Thermo Fisher Scientific, Germany). The calcium content was normalized to total protein for cells or dry weight for aortic rings.

The subject of the next experiment is rat aortic rings. Particulars: for effect on calcium content / calcification of rat aortic rings: peptide fragment 100 nmol L^−1, 7 days.
A further experiment concerns VDN rats. Description: VDN (vitamin D3 plus nicotine) rat model of elastocalcinosis: aortic calcium, von Kossa staining, pulse pressure. Type of experiment: in vivo. Particulars: for calcified surface of the aortas, Von Kossa staining (Example 3 peptide comparison) / calcium content of the aortas (Example 3 peptide comparison) / pulse pressure (Example 3 peptide comparison): VDN animals, versus control animals; for calcified surface of the aortas, Von Kossa staining (Example 3 peptide comparison): FIG. 5b; for calcium content of the aortas (Example 3 peptide comparison): FIG. 5c; for pulse pressure (Example 3 peptide comparison): FIG. 5a. Here is the method:
Ex vivo and calcification of rat aortic rings: The thoracic aorta of 8-13 weeks old male Wistar-rats were gently dissected and were cut in 3-4 mm segments. The endothelial layer of the aortic ring was manually damaged by scratching using a conventional pipette tip. The aortic rings were incubated with DMEM containing 25 mmol L^−1 glucose supplemented with 2.5% fetal calf serum and 2.8 mmol L^−1 phosphate to induce calcification. The calcification medium was supplemented with CBF (max. concentration 1 μmol L^−1) or CBF fragments (100 nmol L^−1). As reference medium, DMEM containing 25 mmol L^−1 glucose supplemented with 2.5% fetal calf serum and 0.9 mmol L^−1 phosphate were used (non-calcifying medium, NCM). The aortic rings were incubated for 7 days while the medium was replaced after 48 h. Effect of CBF in an animal model with enhanced arterial calcification: An animal model of elastocalcinosis with proven increased arterial calcification (Niederhoffer et al., “Aortic calcification produced by vitmin D3 plus nicotine”, J. Vasc. Res. 34, 386-98, 1997) was chosen to assay the effects of CBF in vivo. Animal experiments were approved by the regional ethics committee “Comité d'éthique pour I'expérimentation animale Languedoc Roussillon N°36”, with the agreement number APAFIS 2018072715539434#17270v4, and conformed to the Guide for the Care and Use of Laboratory Animals, NIH (National Academies Press US, 8th edition, 2011). Three groups of 6 weeks old Wistar rats (Charles River Laboratories, L'Arbresle, France) were given a regular rat chow (A04, Safe, Villemoisson-sur-Orge, France) and spring water (Mont Roucous®, France; calcium 60 μM) ad libitum for one week before experiments. Two groups received CBF (31 μg kg^−1 per day) or its vehicle (saline) infused through an osmotic pump (Alzet 2004, Charles River, France) implanted under the skin. CBF treatment was initiated 3 or 4 days before induction of elastocalcinosis (vitamin D3 plus nicotine, or VDN rats) with a single injection of vitamin D3 (300,000 IU kg^−1, i.m.) and two gavages of nicotine (25 mg kg^−1, 5 ml kg^−1) on the same day, as previously described ^47.
Untreated rats served as control rats (sham operation and saline administration). Four weeks later, rats were anaesthetized (ketamine-xylazine), and a catheter was inserted into the right carotid artery for blood pressure measurement. After 10-15 min of equilibration, systolic, diastolic, mean arterial, and pulse (systolic-diastolic) pressures were determined. The aorta was gently dissected, adventitial fat removed, and cut into segments (3-4 mm) for further analysis.
Histological calcification staining and immunofluorescence staining: Aortic rings were placed in 1 ml of 4% formaldehyde for 1 h to prepare for histological and immunohistochemical staining. The rings were dehydrated and embedded in paraffin and 5 μm slices were prepared by a microtome (Leica RM 2250, Wetzlar, Germany). The slices were placed on a glass slide, deparaffinized in xylene, and dehydrated in decreasingly concentrated sopropanol solutions before staining. Von Kossa staining was performed to visualize calcified areas of the aortic rings. The aortic ring slides were incubated with 5% silver nitrate in the presence of UV light at 405 nm for 1 h, washed three times with double-distilled water (ddH2O), incubated in the presence of 5% sodium thiosulfate in water for 1 min, and washed three times with ddH2O. Next, nuclear fast red (Merck; Darmstadt, Germany) was added to the slides for 5 min. The slides were then rinsed, dehydrated with ethanol, incubated for 5 min in xylol, and covered with Vitro-Clud (R. Langenbrinck; Emmendingen, Germany). For immunohistochemical analyses, sections were blocked with blocking solution (1% bovine serum albumin (BSA)) for 30 min at room temperature. […]

No end group written: not given here.

Usually EC50 stands for the concentration giving half of the maximal effect.

Consider “EEEDN RDSSM (EEEDNRDSSM; listed as Homo sapiens) [CBF fragment 06-15]”, for which the “effect on calcium content / calcification of hAoSMCs” value in experiment [1] is “no significant effect”. Further, in the experiment with rat aortic rings (calcifying medium), the “effect on calcium content / calcification of rat aortic rings” value was “no significant effect”.
On to “EEED (listed as Homo sapiens) [CBF 06-09]”, for which, in experiment [1], the “effect on calcium content / calcification of hAoSMCs” value was “strongest inhibition”. In the experiment on rat aortic rings (calcifying medium), the “effect on calcium content / calcification of rat aortic rings” value was “strongest inhibition”.
Regarding “GQEE (listed as Homo sapiens) [CBF 03-06]”, the “effect on calcium content / calcification of hAoSMCs” value in experiment [1] is “inhibitory effect on vascular calcification”. For the same substance, in the experiment with rat aortic rings (calcifying medium), the “effect on calcium content / calcification of rat aortic rings” value is recorded as “inhibitory effect on vascular calcification”.
For “LEGQE EEEDN (LEGQEEEEDN; listed as Homo sapiens) [CBF1]”, in the experiment on VDN rats, the “calcified surface of the aortas, Von Kossa staining (Example 3 peptide comparison)” value (shortened to “calcified surface of the aortas”) is given as “even more pronounced decrease” and the “calcium content of the aortas (Example 3 peptide comparison)” value (shortened to “calcium content of the aortas”) is “even more pronounced decrease”. Also, in experiment [1], the “effect on calcium content / calcification of hAoSMCs” value is recorded as “significantly decreased the calcium content”. Further, the “effect on calcium content / calcification of rat aortic rings” value with rat aortic rings (calcifying medium) is “significantly decreased the calcium content”.
With “LEGQEEEEDNRDSSMKLSF [CBF, LEGQE EEEDN RDSSM KLSF]”, the “Ca2+ content in vessels of treated VDN rats compared to untreated animals” value with VDN rats (31 μg kg^−1 per day via osmotic pump for 4 weeks) is reported as “significantly reduced”. Moreover, in the experiment on VDN rats, the “pulse pressure (Example 3 peptide comparison)” value is listed as “significantly lower pulse pressure”; the “calcified surface of the aortas” value is on record as “decreased calcified surface”; the “calcium content of the aortas” value is listed as “decrease in calcium content”. In the experiment with VDN rats (VDN rats, 31 μg kg^−1 per day for 4 weeks), the “reduction of pulse pressure” value amounted to 63%. For the same substance, the “decrease of calcified surface of aorta (von Kossa staining)” value in the experiment on VDN rats (VDN rats, 31 μg kg^−1 per day via osmotic pump for 4 weeks) is reported as 70%. In addition, in the experiment on VDN rats (VDN rats, chronic treatment 4 weeks, untreated VDN 81±6), the pulse pressure turned out to be 53±3. Moreover, in the experiment with VDN rats (chronic treatment in vivo, 4 weeks), the “arterial pressure in VDN animals” value was “significant decrease”. The “threshold concentration for decreasing calcification in hAoSMCs” value in experiment [1] (hAoSMCs, 7 days, Ca2+ content) was approximately 1 amol L^−1. The substance also came in with an EC50 in the experiment on rat aortic rings of approximately 100 pM. Moreover, in the experiment with rat aortic rings (aortic rings ex vivo, calcifying medium, 7 days, Ca content), the “threshold concentration for reducing calcification of rat aortic rings” value was approximately 0.01 nmol/L. Moreover, the “reduction in the calcified area of aortic rings (von Kossa staining)” value in the experiment with rat aortic rings (calcifying medium, CBF 100 nM) is recorded as 40%.
For “CBF2: CBF fragment comprising the amino acids 11-19 (RDSSMKLSF; listed as Homo sapiens)”, in the experiment with VDN rats, the “pulse pressure (Example 3 peptide comparison)” value is listed as “no effect”; the “calcified surface of the aortas” value is listed as “no effect”; the “calcium content of the aortas” value is “no effect”. In addition, the “effect on calcium content / calcification of hAoSMCs” value in experiment [1] is “no significant effect”. Also, the “effect on calcium content / calcification of rat aortic rings” value in the experiment on rat aortic rings (calcifying medium) is “no significant effect”.
For the substance “EEDN (listed as Homo sapiens) [CBF 07-10]”, in experiment [1], the “effect on calcium content / calcification of hAoSMCs” value was “inhibitory effect on vascular calcification”. Also, in the experiment on rat aortic rings (calcifying medium), the “effect on calcium content / calcification of rat aortic rings” value was “inhibitory effect on vascular calcification”.
Regarding “QEEE (listed as Homo sapiens) [CBF 04-07]”, in experiment [1], the “effect on calcium content / calcification of hAoSMCs” value is listed as “strongest inhibition”. Also, the “effect on calcium content / calcification of rat aortic rings” value in the experiment on rat aortic rings (calcifying medium) is on record as “strongest inhibition”.
Regarding “LEGQE (listed as Homo sapiens) [CBF 01-05]”, the “effect on calcium content / calcification of hAoSMCs” value in experiment [1] was “significant reduction of calcification”. In addition, in the experiment on rat aortic rings (calcifying medium), the “effect on calcium content / calcification of rat aortic rings” value was “significant reduction of calcification”.
Take “EEEE (listed as Homo sapiens) [CBF 05-08]”: the “effect on calcium content / calcification of hAoSMCs” value in experiment [1] is on record as “strongest inhibition”. In the experiment with rat aortic rings (calcifying medium), the “effect on calcium content / calcification of rat aortic rings” value is recorded as “strongest inhibition”.
“EGQE (listed as Homo sapiens) [CBF 02-05]”: the “effect on calcium content / calcification of hAoSMCs” value in experiment [1] was “inhibitory effect on vascular calcification”. For the same substance, the “effect on calcium content / calcification of rat aortic rings” value in the experiment with rat aortic rings (calcifying medium) is “inhibitory effect on vascular calcification”.
As for “LEGQ (listed as Homo sapiens) [CBF 01-04]”, the “effect on calcium content / calcification of hAoSMCs” value in experiment [1] is “inhibitory effect on vascular calcification”. In the experiment on rat aortic rings (calcifying medium), the “effect on calcium content / calcification of rat aortic rings” value was “inhibitory effect on vascular calcification”.
Consider “EEEDN (listed as Homo sapiens) [CBF 06-10]”, for which the “effect on calcium content / calcification of hAoSMCs” value in experiment [1] is “significant reduction of calcification”. Also, in the experiment with rat aortic rings (calcifying medium), the “effect on calcium content / calcification of rat aortic rings” value is reported as “significant reduction of calcification”.

Values taken from US20240033319A1, “PEPTIDES FOR PREVENTING OR TREATING HEART AND BLOOD VESSEL DISEASES” (RD NÉPHROLOGIE, priority 2020, published 2024).
